Reference: paper PMC5811606, “Characterization of ^111In-labeled Glucose-Dependent Insulinotropic Polypeptide as a Radiotracer for Neuroendocrine Tumors” (Scientific Reports, 2018)
Read-outs that look alike come from different tables or passages of the source.

Key:
[1] = Peptide dose escalation study, BHK-GIPR tumor mice; type: in vivo, BALB/c nude mice; conditions: female, mouse, iv, total radioactivity, BHK-GIPR tumor BALB/c nude mice, i.v., 4 h p.i., mean n=5
Description: (§1) All animal experiments were approved by the Animal Welfare Body of the Radboud University, Nijmegen, The Netherlands and carried out in accordance with their guidelines. Six to eight weeks old, female BALB/c nude mice and C3H mice were purchased from Janvier labs (Le Genest Saint Isle, France). For all in vivo experiments, 6-8 weeks old female BALB/c nude mice were injected subcutaneously in the right shoulder with 0.2 ml of a 2.5 × 10^7 cells/ml suspension of BHK-GIPR transfected cells or with 0.2 ml of a 2.5 × 10^7 cells/ml suspension of NES2Y cells mixed with matrigel (2:1) in the right shoulder. When the tumor reached a diameter of 2-5 mm, mice were randomly divided in groups.
To determine the optimal peptide dose of [Lys^37(DTPA)]N-acetyl-GIP1-42, BHK-GIPR transfected tumor bearing BALB/c nude mice (n = 5/group) were injected intravenously with approximately 3 MBq [Lys^37(^111In-DTPA)]N-acetyl-GIP1-42 (0.05 µg) in the tail vein and were co-injected with escalating amounts of unlabeled [Lys^37(DTPA)]N-acetyl-GIP1-42 (0.05 µg – 1.95 µg), resulting in final peptide doses ranging from 0.1 to 2 µg/mouse (0.02 – 0.4 nmol/mouse) (5 groups, n = 5/group). Four hours after injection, mice were euthanized by CO2/O2 suffocation and tumors and other relevant tissues (heart, muscle, lung, spleen, pancreas, kidney, liver, stomach and duodenum) were dissected, weighed and measured in a well type gamma counter. The percentage injected dose per gram of tissue (%ID/g) was determined for each tissue.

[2] = Biodistribution study, NES2Y tumor mice; type: in vivo; conditions: female, mouse, iv, total radioactivity, i.v., 0.2 µg; for tissue uptake at 1 h: BALB/c nude; for tissue to tissue ratio at 1 h: NES2Y tumor BALB/c nude mice
Description: as §1
BALB/c nude mice bearing BHK-GIPR transfected tumors were injected intravenously with approximately 3 MBq (peptide dose 0.2 µg = 0.04 nmol) of [Lys^37(^111In-DTPA)]N-acetyl-GIP1-42 via the tail vein. At various time points after injection (1, 4 and 24 hours), mice were euthanized by CO2/O2 suffocation and blood, tumor and other relevant tissues were dissected, weighed and measured in a well type gamma counter. The percentage injected dose per gram (%ID/g) was calculated for each tissue. To determine whether the GIP1-42 uptake was GIPR mediated, 25 µg of unlabeled GIP1-42 was co-injected in a separate group (n = 5) and mice were euthanized four hours post-injection. BALB/c nude mice bearing NES2Y tumors (n = 5) were injected intravenously with approximately 3 MBq (peptide dose 0.2 µg = 0.04 nmol) of [Lys^37(^111In-DTPA)]N-acetyl-GIP1-42 via the tail vein. One hour after injection, mice were euthanized by CO2/O2 suffocation and blood, tumor and other relevant tissues were dissected, weighed and measured in a well type gamma counter. The percentage injected dose per gram (%ID/g) was determined for each tissue. To determine whether the GIP1-42 uptake was GIPR mediated, 25 µg of unlabeled GIP1-42 was co-injected in a separate group (n = 2) and mice were euthanized one hours post-injection.

## CC[C@H](C)[C@H](NC(=O)[C@H](CO)NC(=O)[C@H](Cc1ccc(O)cc1)NC(=O)[C@H](CC(=O)O)NC(=O)[C@H](CO)NC(=O)[C@@H](NC(=O)[C@H](Cc1ccccc1)NC(=O)[C@@H](NC(=O)CNC(=O)[C@H](CCC(=O)O)NC(=O)[C@H](C)NC(=O)[C@H](Cc1ccc(O)cc1)NC(C)=O)[C@@H](C)O)[C@@H](C)CC)C(=O)N[C@@H](C)C(=O)N[C@@H](CCSC)C(=O)N[C@@H](CC(=O)O)C(=O)N[C@@H](CCCCN)C(=O)N[C@H](C(=O)N[C@@H](Cc1c[nH]cn1)C(=O)N[C@@H](CCC(N)=O)C(=O)N[C@@H](CCC(N)=O)C(=O)N[C@@H](CC(=O)O)C(=O)N[C@@H](Cc1ccccc1)C(=O)N[C@H](C(=O)N[C@@H](CC(N)=O)C(=O)N[C@@H](Cc1c[nH]c2ccccc12)C(=O)N[C@@H](CC(C)C)C(=O)N[C@@H](CC(C)C)C(=O)N[C@@H](C)C(=O)N[C@@H](CCC(N)=O)C(=O)N[C@@H](CCCCN)C(=O)NCC(=O)N[C@@H](CCCCN)C(=O)N[C@@H](CCCCN)C(=O)N[C@@H](CC(N)=O)C(=O)N[C@@H](CC(=O)O)C(=O)N[C@@H](Cc1c[nH]c2ccccc12)C(=O)N[C@@H](CCCCNC(=O)CN(CCN(CCN(CC(=O)O)CC(=O)O)CC(=O)O)CC(=O)O)C(=O)N[C@@H](Cc1c[nH]cn1)C(=O)N[C@@H](CC(N)=O)C(=O)N[C@H](C(=O)N[C@H](C(=O)N[C@@H](CCC(N)=O)C(=O)O)[C@@H](C)O)[C@@H](C)CC)C(C)C)[C@@H](C)CC [[Lys^37(^111In-DTPA)]N-acetyl-GIP1-42, metal not drawn]
[1]; tumor/heart, 0.1 ug/mouse, peptide dose 0.1 µg, read-out: Tumor/Heart
  tissue to tissue ratio at 4 h: 35.6
[1]; tumor/heart, 0.2 ug/mouse, peptide dose 0.2 µg, read-out: Tumor/Heart
  tissue to tissue ratio at 4 h: 33.1
[1]; tumor/heart, 0.5 ug/mouse, peptide dose 0.5 µg, read-out: Tumor/Heart
  tissue to tissue ratio at 4 h: 14.6
[1]; tumor/heart, 1 ug/mouse, peptide dose 1 µg, read-out: Tumor/Heart
  tissue to tissue ratio at 4 h: 16.4
[1]; tumor/heart, 2 ug/mouse, peptide dose 2 µg, read-out: Tumor/Heart
  tissue to tissue ratio at 4 h: 11.2
[1]; tumor/kidney, 0.1 ug/mouse, peptide dose 0.1 µg, read-out: Tumor/Kidney
  tissue to tissue ratio at 4 h: 0.02
[1]; tumor/kidney, 0.2 ug/mouse, peptide dose 0.2 µg, read-out: Tumor/Kidney
  tissue to tissue ratio at 4 h: 0.019
[1]; tumor/kidney, 0.5 ug/mouse, peptide dose 0.5 µg, read-out: Tumor/Kidney
  tissue to tissue ratio at 4 h: 0.011
[1]; tumor/kidney, 1 ug/mouse, peptide dose 1 µg, read-out: Tumor/Kidney
  tissue to tissue ratio at 4 h: 0.01
[1]; tumor/kidney, 2 ug/mouse, peptide dose 2 µg, read-out: Tumor/Kidney
  tissue to tissue ratio at 4 h: 0.008
[1]; tumor/lung, 0.1 ug/mouse, peptide dose 0.1 µg, read-out: Tumor/Lung
  tissue to tissue ratio at 4 h: 13
[1]; tumor/lung, 0.2 ug/mouse, peptide dose 0.2 µg, read-out: Tumor/Lung
  tissue to tissue ratio at 4 h: 10
[1]; tumor/lung, 0.5 ug/mouse, peptide dose 0.5 µg, read-out: Tumor/Lung
  tissue to tissue ratio at 4 h: 4.18
[1]; tumor/lung, 1 ug/mouse, peptide dose 1 µg, read-out: Tumor/Lung
  tissue to tissue ratio at 4 h: 4.81
[1]; tumor/lung, 2 ug/mouse, peptide dose 2 µg, read-out: Tumor/Lung
  tissue to tissue ratio at 4 h: 3.58
[1]; tumor/muscle, 0.1 ug/mouse, peptide dose 0.1 µg, read-out: Tumor/Muscle
  tissue to tissue ratio at 4 h: 33.7
[1]; tumor/muscle, 0.2 ug/mouse, peptide dose 0.2 µg, read-out: Tumor/Muscle
  tissue to tissue ratio at 4 h: 41.1
[1]; tumor/muscle, 0.5 ug/mouse, peptide dose 0.5 µg, read-out: Tumor/Muscle
  tissue to tissue ratio at 4 h: 19.1
[1]; tumor/muscle, 1 ug/mouse, peptide dose 1 µg, read-out: Tumor/Muscle
  tissue to tissue ratio at 4 h: 20.9
[1]; tumor/muscle, 2 ug/mouse, peptide dose 2 µg, read-out: Tumor/Muscle
  tissue to tissue ratio at 4 h: 12.2
[2]; NES2Y tumor, 0.2 ug, 1 h p.i., mean n=5, read-out: Tumor uptake
  tissue uptake at 1 h: 0.7 ± 0.2 %ID/g
[2]; NES2Y tumor, 1 h p.i. + xs (25 µg unlabeled GIP1-42), mean, n=5, read-out: Tumor uptake
  tissue uptake at 1 h: 0.6 ± 0.01 %ID/g
[2]; duodenum, 0.2 ug, 1 h p.i., mean n=5, read-out: Duodenum uptake
  tissue uptake at 1 h: 0.42 %ID/g
[2]; duodenum, 1 h p.i. + xs (25 µg unlabeled GIP1-42), mean, n=5, read-out: Duodenum uptake
  tissue uptake at 1 h: 0.369 %ID/g
[2]; heart, 0.2 ug, 1 h p.i., mean n=5, read-out: Heart uptake
  tissue uptake at 1 h: 0.135 %ID/g
[2]; heart, 1 h p.i. + xs (25 µg unlabeled GIP1-42), mean, n=5, read-out: Heart uptake
  tissue uptake at 1 h: 0.103 %ID/g
[2]; kidney, 0.2 ug, 1 h p.i., mean n=5, read-out: Kidney uptake
  tissue uptake at 1 h: 184 %ID/g
[2]; kidney, 1 h p.i. + xs (25 µg unlabeled GIP1-42), mean, n=5, read-out: Kidney uptake
  tissue uptake at 1 h: 180 %ID/g
[2]; liver, 0.2 ug, 1 h p.i., mean n=5, read-out: Liver uptake
  tissue uptake at 1 h: 1.1 %ID/g
[2]; liver, 1 h p.i. + xs (25 µg unlabeled GIP1-42), mean, n=5, read-out: Liver uptake
  tissue uptake at 1 h: 0.827 %ID/g
[2]; lung, 0.2 ug, 1 h p.i., mean n=5, read-out: Lung uptake
  tissue uptake at 1 h: 0.485 %ID/g
[2]; lung, 1 h p.i. + xs (25 µg unlabeled GIP1-42), mean, n=5, read-out: Lung uptake
  tissue uptake at 1 h: 0.474 %ID/g
[2]; muscle, 0.2 ug, 1 h p.i., mean n=5, read-out: Muscle uptake
  tissue uptake at 1 h: 0.069 %ID/g
[2]; muscle, 1 h p.i. + xs (25 µg unlabeled GIP1-42), mean, n=5, read-out: Muscle uptake
  tissue uptake at 1 h: 0.057 %ID/g
[2]; pancreas, 0.2 ug, 1 h p.i., mean n=5, read-out: Pancreas uptake
  tissue uptake at 1 h: 0.201 %ID/g
[2]; pancreas, 1 h p.i. + xs (25 µg unlabeled GIP1-42), mean, n=5, read-out: Pancreas uptake
  tissue uptake at 1 h: 0.158 %ID/g
[2]; spleen, 0.2 ug, 1 h p.i., mean n=5, read-out: Spleen uptake
  tissue uptake at 1 h: 0.462 %ID/g
[2]; spleen, 1 h p.i. + xs (25 µg unlabeled GIP1-42), mean, n=5, read-out: Spleen uptake
  tissue uptake at 1 h: 0.341 %ID/g
[2]; stomach, 0.2 ug, 1 h p.i., mean n=5, read-out: Stomach uptake
  tissue uptake at 1 h: 0.336 %ID/g
[2]; stomach, 1 h p.i. + xs (25 µg unlabeled GIP1-42), mean, n=5, read-out: Stomach uptake
  tissue uptake at 1 h: 0.283 %ID/g
[2]; whole blood, 0.2 ug, 1 h p.i., mean n=5, read-out: Blood uptake
  tissue uptake at 1 h: 0.175 %ID/g
[2]; whole blood, 1 h p.i. + xs (25 µg unlabeled GIP1-42), mean, n=5, read-out: Blood uptake
  tissue uptake at 1 h: 0.214 %ID/g
[2]; tumor and blood, 0.2 ug, 1 h p.i., mean n=5, read-out: Tumor/Blood
  tissue to tissue ratio at 1 h: 3.96
[2]; tumor and blood, 1 h p.i. + xs (25 µg unlabeled GIP1-42), mean, n=5, read-out: Tumor/Blood
  tissue to tissue ratio at 1 h: 3.01
[2]; tumor and heart, 0.2 ug, 1 h p.i., mean n=5, read-out: Tumor/Heart
  tissue to tissue ratio at 1 h: 4.83
[2]; tumor and heart, 1 h p.i. + xs (25 µg unlabeled GIP1-42), mean, n=5, read-out: Tumor/Heart
  tissue to tissue ratio at 1 h: 6.09
[2]; tumor and kidney, 0.2 ug, 1 h p.i., mean n=5, read-out: Tumor/Kidney
  tissue to tissue ratio at 1 h: 0.004
[2]; tumor and kidney, 1 h p.i. + xs (25 µg unlabeled GIP1-42), mean, n=5, read-out: Tumor/Kidney
  tissue to tissue ratio at 1 h: 0.004
[2]; tumor and lung, 0.2 ug, 1 h p.i., mean n=5, read-out: Tumor/Lung
  tissue to tissue ratio at 1 h: 1.38
[2]; tumor and lung, 1 h p.i. + xs (25 µg unlabeled GIP1-42), mean, n=5, read-out: Tumor/Lung
  tissue to tissue ratio at 1 h: 1.33
[2]; tumor and muscle, 0.2 ug, 1 h p.i., mean n=5, read-out: Tumor/Muscle
  tissue to tissue ratio at 1 h: 9.43
[2]; tumor and muscle, 1 h p.i. + xs (25 µg unlabeled GIP1-42), mean, n=5, read-out: Tumor/Muscle
  tissue to tissue ratio at 1 h: 11.1
